Assay results reported in PMC12081870 (Communications Biology, 2025).

What was measured:
[1] = system: Las17 and las17 P387A expressing yeast strains; assay: Latrunculin-A halo assay on yeast; format: cell-based, Saccharomyces cerevisiae; conditions: 10 µl latrunculin-A disc, halo assay, 5 repeats
Method: Supplementary Information.
Methods used in Supplementary Data
Yeast strains, growth and staining
Yeast plasmids used in this study are listed in Supplementary table 1 and yeast strains used in Supplementary table 2. Unless stated otherwise, cells were grown with rotary shaking at 30°C in liquid YPD medium (1% yeast extract, 2% Bacto-peptone, 2% glucose supplemented with 40 μg/ml adenine) or in synthetic medium (0.67% yeast nitrogen base, 2% glucose) with appropriate supplements. Growth assays used solid medium with 2% agar added to above. All strains carrying fluorescent tags have growth properties similar to isogenic control strains with the exception of strains carrying dual reporters where lifetimes were longer for both wild type and mutant strains (in Figure 9D). Point mutations in LAS17 were generated using site directed mutagenesis (Agilent). DNA cassettes carrying mutations for integration were transformed into KAY1801. Mutant colonies were counter-selected on minimal medium, containing 0.005% uracil and 0.1% 5’-Fluoroorotic Acid (5-FOA; Melford labs). […]
expressing strains on plates on which a disc carrying 10 µl of latrunculin-A of varying concentrations was placed (white disc). […] They were then scored according to the extent of uptake and categorised according to the key shown. >100 cells were visualised for each strain in each of 3 independent experiments. […]

G-actin = assay: MST, Las17 300-422 P387A / P388A to labelled G-actin; format: binding, rabbit; conditions: three repeats, not statistically significant
Source text: A Purified individual GST-tagged Sla1 SH3 domains were used to probe a Celluspot array consisting of a series of 12 amino acid peptides starting with residue 181, and subsequent peptides starting at two amino acid intervals, up to amino acid 540. Binding of GST-Sla1 SH3 to the array was identified by further probing of HRP-tagged anti-GST and subsequent visualisation using chemiluminescence. […] Error bars are standard error of mean.
The small reduction was not found to be statistically significant over three repeats.
Microscale Thermophoresis (MST) assays were performed as described previously. Briefly, rabbit muscle actin in G-buffer minus DTT was […] using Monolith NT^TM Protein Labelling Kit RED-Malemide (NanoTemper Technologies, Munich, Germany). […] Each reaction was then loaded into Monolith NT.115 Premium Treated Capillaries (NanoTemper Technologies) and thermophoresis was measured in a Monolith NT.115 Microscale Thermophoresis device (NanoTemper Technologies). Thermophoresis was measured at 20% red LED power and 40% IR laser power at 22°C. Fnorm was calculated from the ratio of fluorescence before heating and after the new equilibrium had been reached. […] Each experiment was carried out three separate times with protein from different protein preparations and mean ± SE shown except for Fig. 7a where mean ± SD is shown.

actin = assay: Pyrene actin assay, actin polymerisation in the absence of Arp2/3; format: biochemical, rabbit; conditions: no Arp2/3, 300 nM fragment, 3 µM actin
Method: 300 nM each fragment; 3 µM actin. […] Error bars are standard error of mean.
Rabbit skeletal muscle actin was gel filtered as described. Concentrations of G-actin produced and used in experiments were in the range 35–65 µM.
Fluorometry assays were performed as described previously. 370 μl assays used 3 μM actin as indicated unless otherwise specified. Pyrene-actin was added to 5%, mixed thoroughly, and added to the fluorometry cuvette. Polymerization salts, 10× KME (500 mM KCl, 10 mM MgCl2, 10 mM EGTA, 100 mM Tris-HCl [pH 8.0]) were mixed with fragments or G buffer to give final concentration of 0.5× KME before reading fluorescence. […] Experiments were carried out three separate times with different protein preparations and a representative graph shown.

[2] = target: Las17 PPR-N fragment (residues 300-422), wild type (S. cerevisiae) (UniProt Q12446); assay: BLI; Octet R2 (Sartorius); Octet NTA Biosensors or Octet GST Biosensors, which partner was loaded is not stated; repeated three times; the constant of SH3#1-3 is called apparent

Molecule: C/C1=C/C(=O)O[C@@H]2C[C@@H](CC[C@H](C)/C=C\C=C\CC1)O[C@@](O)([C@@H]1CSC(=O)N1)C2 [latrunculin-A, reference compound]
- increase in Lat-A sensitivity of las17 P387A compared to wild type [1]: 7 fold

Molecule: Las17 (300–422) P387A: Las17 (300–422) with P387A mutation
- effect on actin binding (G-actin): little change in actin binding

Molecule: Las17(342–392): minimal Las17 fragment with two arginine-pair actin sites, left on GST tag
- stimulation of Arp2/3-independent actin polymerisation (actin): unable to stimulate Arp2/3-independent actin polymerisation

Molecule: Sla1 SH3#1&2 W108A (domain or fragment)
- Kd [2]: 7.4 µM

Molecule: Las17 (300–422) P388A: Las17 (300–422) with P388A mutation
- effect on actin binding (G-actin): little change in actin binding

Molecule: Las17(300–633): Las17 fragment containing both PPR and VCA
- stimulation of Arp2/3-independent actin polymerisation (actin): able to stimulate actin polymerisation in the absence of Arp2/3
